From US11471452B2, “Compositions and methods for treating or preventing vasomotor symptoms” (Mitsubishi Tanabe Pharma Corporation, priority 2017, dated 2022)

Tests used:
[1] = system: female subjects experiencing Vasomotor Symptoms (VMS); test: Phase Ib study: core body temperature assessment, change from baseline within 24 hours post-dose; assay type: in vivo, human; settings: 5 mg administered group, within 24 hours post-dose on Visit Day 1 or 7; like placebo, in comparison with 20 mg and 50 mg groups
Text: (§1) Study Design: This was a Phase Ib, randomized, double blind, placebo controlled study. The study design is illustrated in FIG. 1. Following the initial Screening visit, eligible subjects was given an actigraphy event monitor (watch) to record episodes of flashing as Vasomotor symptoms (VMS) events during a period of 2 weeks during Screening, in order to confirm VMS eligibility criteria (≥7 VMS/day on average during 2 weeks). Subjects may be required to return to the site during the Screening period to read or exchange the actigraphy event monitor. Subjects deemed eligible following review of VMS data were invited to attend the Clinical research unit (CRU) for one residential period of 16 days duration, including 14 days of Investigational Medicinal Product (IMP) administration. Subjects were admitted to the CRU 1 day prior to dosing (Day-1). No medication was administered on Day-1. On Day 1, subjects who meet the study eligibility criteria were randomized to receive one dose level of either Compound A (6 subjects) or a matching placebo (2 subjects) in a double-blind manner. Randomized treatment was administered once nightly, starting on Day 1, for a total duration of 14 days.
The anticipated dose levels of Compound A to be administered are 50 mg for Cohort 1, 20 mg for Cohort 2 and 5 mg for Cohort 3. […]

[2] = system: female subjects experiencing Vasomotor Symptoms (VMS); test: Phase Ib study: frequency of vasomotor symptoms (VMS), moderate and severe VMS counted, 14 days once nightly dosing; assay type: in vivo, human; design: Mean Observed Value in VMS frequency: unit not given here
Text: as §1
The anticipated dose levels of Compound A to be administered are 50 mg for Cohort 1, 20 mg for Cohort 2 and 5 mg for Cohort 3. Progression to the next dose level and selection of the dose to be administered in Cohort 2 and Cohort 3 is based on emerging safety and tolerability data and available core body temperature data from the preceding dose cohort. If the dose escalation stopping criteria are met, then the dose for the subsequent cohort is reduced. […] The three cohorts are dosed sequentially with a fourth additional cohort being dosed, if necessary, to investigate other dose levels.
Five (5) mg of Compound A was administered to the female subjects experiencing Vasomotor Symptoms (VMS), and as the above-mentioned assessments, a Frequency of VMS and a Core body temperature assessment were examined.
Here a moderate VMS and a severe VMS were counted as a VMS frequency.

`O=C(O)c1ccc(S(=O)(=O)N(Cc2ccc(OC(F)(F)F)cc2)c2ncc3ccccc3c2C2CC2)cc1` [Compound A, 4-({(4-cyclopropylisoquinolin-3-yl)[4-(trifluoromethoxy)benzyl]amino}sulfonyl)benzoic acid] was tested, and the “Change from baseline in core body temperature” value [1] was “no significant reduced the core body temperature”, the “Effect on frequency of VMS versus placebo (FIG. 2)” value ([2]; 5 mg once nightly, 14 days of treatment) was “reduced the frequency of VMS significantly” and the “Onset of the reduction effect of VMS frequency” value ([2]; 5 mg, shown during the first night of active drug therapy or later, within a few days, compared to estrogen or Paroxetine) was “immediate effect”. The “Mean Observed Value in VMS frequency” value ([2]; Baseline, 5 mg Compound A group, moderate and severe VMS counted) was 14.5, the “Mean Observed Value in VMS frequency” value ([2]; Day 1, 5 mg once nightly) was 9.7 and the “Mean Observed Value in VMS frequency” value ([2]; Day 2, 5 mg once nightly) was 7.2. For the same compound, the “Mean Observed Value in VMS frequency” value ([2]; Day 3, 5 mg once nightly) was 6.3, the “Mean Observed Value in VMS frequency” value ([2]; Day 4, 5 mg once nightly) was 5.3 and the “Mean Observed Value in VMS frequency” value ([2]; Day 5, 5 mg once nightly) was 8.0. The “Mean Observed Value in VMS frequency” value ([2]; Day 6, 5 mg once nightly) was 6.3, the “Mean Observed Value in VMS frequency” value ([2]; Day 7, 5 mg once nightly) was 4.7 and the “Mean Observed Value in VMS frequency” value ([2]; Day 8, 5 mg once nightly) was 3.7. For the same compound, the “Mean Observed Value in VMS frequency” value ([2]; Day 9, 5 mg once nightly) was 4.5, the “Mean Observed Value in VMS frequency” value ([2]; Day 10, 5 mg once nightly) was 3.2 and the “Mean Observed Value in VMS frequency” value ([2]; Day 11, 5 mg once nightly) was 3.7. For the same compound, the “Mean Observed Value in VMS frequency” value ([2]; Day 12, 5 mg once nightly) was 3.2, the “Mean Observed Value in VMS frequency” value ([2]; Day 13, 5 mg once nightly) was 3.2 and the “Mean Observed Value in VMS frequency” value ([2]; Day 14, 5 mg once nightly) was 4.8.
